Laboratory results reported in patent publication US9907776B2 (priority 2013, dated 2018).

Experiments:
[1] = system: PTZ (Pentylenetetrazol) induced clonic seizure; parameters: species or system Mouse; ICR; conditions: mouse, in vivo
[2] = system: corneally kindled seizures; test: animal or person; assay type: in vivo, Sprague-Dawley rats; conditions: Rattus norvegicus, po
[3] = system: PTZ (Pentylenetetrazol) induced clonic seizure; test: animal or person; assay type: in vivo, Rats; SD; conditions: for PTZ test (ip) Protection % (Rats): rat, in vivo
[4] = system: hippocampal kindled seizures; test: animal or person; assay type: in vivo, Sprague-Dawley rats; conditions: Rattus norvegicus, ip, read-out: HK (ip) ED50
[5] = read-out: CK(po) Protection % (Rats)

CCCNC(=O)O[C@H](C)[C@H](O)c1ccccc1Cl [Example 23, 1-(2-chlorophenyl)-(R)-1-hydroxypropyl-(R)-2-N-propylcarbamate]
PTZ test (ip) Protection % (Mice) [1]: ^a20.4 (50%)^

CCCC[C@H](OC(N)=O)[C@@H](O)c1c(Cl)cccc1Cl [Example 44, 1-(2,6-dichlorophenyl)-(S)-1-hydroxyhexyl-(S)-2-carbamate]
PTZ test (ip) Protection % (Mice) [1]: ^a20.4 (33.3%)

C[C@H](OC(N)=O)[C@@H](O)c1ccccc1I [Example 65, 1-(2-iodophenyl)-(S)-1-hydroxypropyl-(S)-2-carbamate]
responders at 2.8 mg/kg [2, 5]: 33.3% | PTZ test (ip) Protection % (Mice) [1]: ^a20.4 (100%)

CC(C)[C@H](OC(N)=O)[C@@H](O)c1ccccc1Cl [Example 9, 1-(2-chlorophenyl)-(S)-1-hydroxy-3-methyl-butyl-(S)-2-carbamate]
responders at 30 mg/kg [2, 5]: 16.7% | PTZ test (ip) Protection % (Mice) [1]: ^a20.4 (33.3%)

CNC(=O)OC(C)C(O)c1ccccc1Cl (racemic) [Example 29, 1-(2-chlorophenyl)-1-hydroxypropyl-2-N-methylcarbamate]
PTZ test (ip) Protection % (Mice) [1]: ^a20.4 (33.3%)

C[C@H](OC(N)=O)[C@@H](O)c1cccc(Cl)c1Cl [Example 38, 1-(2,3-dichlorophenyl)-(S)-1-hydroxypropyl-(S)-2-carbamate]
responders at 30 mg/kg [2, 5]: 50% | PTZ test (ip) Protection % (Mice) [1]: ^a20.4 (50%)^

CC[C@H](OC(N)=O)[C@@H](O)c1ccccc1I [Example 67, 1-(2-iodophenyl)-(S)-1-hydroxybutyl-(S)-2-carbamate]
PTZ test (ip) Protection % (Rats) [3]: ^b30 (33.3%) | responders at 30 mg/kg [2, 5]: 100%

CC[C@H](OC(N)=O)[C@@H](O)c1ccccc1Cl [Example 6, 1-(2-chlorophenyl)-(S)-1-hydroxybutyl-(S)-2-carbamate]
PTZ test (ip) Protection % (Rats) [3]: ^b30 (50%)^ | responders at 10 mg/kg [2, 5]: 33.3%

CNC(=O)O[C@@H](C)[C@@H](O)c1ccccc1Cl [Example 15, 1-(2-chlorophenyl)-(S)-1-hydroxypropyl-(S)-2-N-methylcarbamate]
PTZ test (ip) Protection % (Rats) [3]: ^b25 (33.3%)

C[C@@H](OC(N)=O)[C@H](O)c1ccccc1Cl [Example 2, 1-(2-chlorophenyl)-(R)-1-hydroxypropyl-(R)-2-carbamate]
responders at 20 mg/kg [2, 5]: 16.7%

CCCCC(OC(N)=O)C(O)c1ccccc1Cl (racemic) [Example 14, 1-(2-chlorophenyl)-1-hydroxyhexyl-2-carbamate]
PTZ test (ip) Protection % (Mice) [1]: ^a20.4 (16.7%)

C[C@@H](OC(N)=O)[C@H](O)c1ccc(Cl)cc1Cl [Example 45, 1-(2,4-dichlorophenyl)-(R)-1-hydroxypropyl-(R)-2-carbamate]
PTZ test (ip) Protection % (Rats) [3]: ^b50 (16.7%) | PTZ test (ip) Protection % (Mice) [1]: ^a20.4 (16.7%)

C[C@@H](OC(N)=O)[C@@H](O)c1ccccc1Cl [Example 4, 1-(2-chlorophenyl)-(S)-1-hydroxypropyl-(R)-2-carbamate]
responders at 30 mg/kg [2, 5]: 100%

CCCNC(=O)O[C@@H](C)[C@@H](O)c1ccccc1Cl [Example 16, 1-(2-chlorophenyl)-(S)-1-hydroxypropyl-(S)-2-N-propylcarbamate]
PTZ test (ip) Protection % (Rats) [3]: ^b30 (33.3%)

C[C@H](OC(N)=O)[C@@H](O)c1c(Cl)cccc1Cl [Example 37, 1-(2,6-dichlorophenyl)-(S)-1-hydroxypropyl-(S)-2-carbamate]
PTZ test (ip) Protection % (Rats) [3]: ^b30 (50%)^ | responders at 10 mg/kg [2, 5]: 33.3%

CC(C)NC(=O)OC(C)C(O)c1ccccc1Cl (racemic) [Example 31, 1-(2-chlorophenyl)-1-hydroxypropyl-2-N-isopropylcarbamate]
PTZ test (ip) Protection % (Mice) [1]: ^a20.4 (83.3%)

CCCNC(=O)OC(C)C(O)c1ccccc1Cl (racemic) [Example 30, 1-(2-chlorophenyl)-1-hydroxypropyl-2-N-propylcarbamate]
PTZ test (ip) Protection % (Mice) [1]: ^a20.4 (33.3%)

CC(OC(=O)NC1CC1)C(O)c1ccccc1Cl (racemic) [Example 32, 1-(2-chlorophenyl)-1-hydroxypropyl-2-N-cyclopropylcarbamate]
PTZ test (ip) Protection % (Mice) [1]: ^a20.4 (16.7%)

C[C@H](OC(N)=O)[C@H](O)c1ccccc1Cl [Example 5, 1-(2-chlorophenyl)-(R)-1-hydroxypropyl-(S)-2-carbamate]
responders at 30 mg/kg [2, 5]: 50%

C[C@@H](OC(N)=O)[C@H](O)c1c(Cl)cccc1Cl [Example 46, 1-(2,6-dichlorophenyl)-(R)-1-hydroxypropyl-(R)-2-carbamate]
responders at 20 mg/kg [2, 5]: 50% | PTZ test (ip) Protection % (Mice) [1]: ^a20.4 (50%)^

C[C@H](OC(N)=O)[C@@H](O)c1ccccc1Cl [Example 1, 1-(2-chlorophenyl)-(S)-1-hydroxypropyl-(S)-2-carbamate]
ED50 [4]: 17.6 mg/kg | ED50 ([2]; read-out: CK(po) ED50): 2.8 mg/kg

C[C@H](OC(N)=O)[C@@H](O)c1ccc(Cl)cc1Cl [Example 36, 1-(2,4-dichlorophenyl)-(S)-1-hydroxypropyl-(S)-2-carbamate]
responders at 30 mg/kg [2, 5]: 50% | PTZ test (ip) Protection % (Mice) [1]: ^a20.4 (33.3%)

C[C@H](OC(N)=O)[C@@H](O)c1ccccc1F [Example 63, 1-(2-fluorophenyl)-(S)-1-hydroxypropyl-(S)-2-carbamate]
responders at 20 mg/kg [2, 5]: 100% | PTZ test (ip) Protection % (Mice) [1]: ^a20.4 (50%)^

CC(OC(N)=O)C(O)c1ccccc1Cl (racemic) [Example 3, 1-(2-chlorophenyl)-1-hydroxypropyl-2-carbamate]
ED50 ([3]; Rattus norvegicus, ip, read-out: PTZ test (ip) Rats ED50): 81.9 mg/kg | responders at 10 mg/kg [2, 5]: 50%

CCCC[C@H](OC(N)=O)[C@@H](O)c1ccccc1Cl [Example 12, 1-(2-chlorophenyl)-(S)-1-hydroxyhexyl-(S)-2-carbamate]
PTZ test (ip) Protection % (Mice) [1]: ^a20.4 (33.3%)

C[C@@H](OC(=O)NC1CC1)[C@H](O)c1ccccc1Cl [Example 25, 1-(2-chlorophenyl)-(R)-1-hydroxypropyl-(R)-2-N-cyclopropylcarbamate]
PTZ test (ip) Protection % (Mice) [1]: ^a20.4 (66.7%)

CC[C@H](OC(N)=O)[C@@H](O)c1c(Cl)cccc1Cl [Example 40, 1-(2,6-dichlorophenyl)-(S)-1-hydroxybutyl-(S)-2-carbamate]
PTZ test (ip) Protection % (Mice) [1]: ^a20.4 (33.3%)

CCCC[C@H](OC(N)=O)[C@@H](O)c1ccc(Cl)cc1Cl [Example 43, 1-(2,4-dichlorophenyl)-(S)-1-hydroxyhexyl-(S)-2-carbamate]
PTZ test (ip) Protection % (Rats) [3]: ^b25 (33.3%)

CCC(OC(N)=O)C(O)c1ccccc1Cl (racemic) [Example 8, 1-(2-chlorophenyl)-1-hydroxybutyl-2-carbamate]
PTZ test (ip) Protection % (Mice) [1]: ^a20.4 (50%)^

CCCC[C@@H](OC(N)=O)[C@H](O)c1ccccc1Cl [Example 13, 1-(2-chlorophenyl)-(R)-1-hydroxyhexyl-(R)-2-carbamate]
PTZ test (ip) Protection % (Mice) [1]: ^a20.4 (50%)^

CC(C)[C@H](OC(N)=O)[C@@H](O)c1c(Cl)cccc1Cl [Example 42, 1-(2,6-dichlorophenyl)-(S)-1-hydroxy-3-methyl-butyl-(S)-2-carbamate]
PTZ test (ip) Protection % (Mice) [1]: ^a20.4 (50%)^

C[C@H](OC(=O)NC1CC1)[C@@H](O)c1ccccc1Cl [Example 18, 1-(2-chlorophenyl)-(S)-1-hydroxypropyl-(R)-2-N-cyclopropylcarbamate]
PTZ test (ip) Protection % (Rats) [3]: ^b30 (16.7%)

CC[C@H](OC(N)=O)[C@@H](O)c1ccc(Cl)cc1Cl [Example 39, 1-(2,4-dichlorophenyl)-(S)-1-hydroxybutyl-(S)-2-carbamate]
responders at 25 mg/kg [2, 5]: 100%
